Measurements: ChEMBL document CHEMBL1153791, “Acylphloroglucinol, biyouyanagiol, biyouyanagin B, and related spiro-lactones from Hypericum chinense” (J Nat Prod, 2009)
In brackets after ≈: the same amount, converted by molar mass.

Tests used:
Format in all cases: functional, cell-based
[1] = tested on: KB; assay: Cytotoxicity against human KB cells after 48 hrs by MTT assay
[2] = Cytotoxicity against human multidrug resistant KB-C2 cells after 48 hrs by MTT assay; conditions: KB-C2, 48 h
[3] = Cytotoxicity against human multidrug resistant KB-C2 cells after 48 hrs by MTT assay in the presence of colchicine; conditions: KB-C2, 48 h
[4] = tested on: MCF7; assay: Cytotoxicity against human MCF7 cells after 48 hrs by MTT assay; conditions: MCF7, 48 h
[5] = tested on: K562; assay: Cytotoxicity against human K562 cells after 48 hrs by MTT assay; conditions: K562, 48 h
[6] = tested on: K562; assay: Cytotoxicity against human doxorubicin-resistant K562 cells after 48 hrs by MTT assay; conditions: K562, 48 h
[7] = tested on: COLO 205; assay: Cytotoxicity against human COLO205 cells after 48 hrs by MTT assay; conditions: COLO 205, 48 h

## C=C[C@@]1(C)COC(=O)[C@]12OC([C@H](C)CC)=CC2=O [HYPERLACTONE A]
[1]
  IC50: > 100 µg/mL
[2]
  IC50: > 100 µg/mL
[3]
  IC50: 70.8 µg/mL
[4]
  IC50: > 100 µg/mL
[5]
  IC50: > 100 µg/mL
[6]
  IC50: 47.1 µg/mL (≈ 188 µM)
[7]
  IC50: > 100 µg/mL

## C=C[C@@]1(C)COC(=O)[C@]12OC(c1ccccc1)=CC2=O [HYPERLACTONE C]
[1]
  IC50: > 100 µg/mL
[2]
  IC50: > 100 µg/mL
[3]
  IC50: 51.8 µg/mL
[4]
  IC50: 77.7 µg/mL (≈ 287 µM)
[5]
  IC50: > 100 µg/mL
[6]
  IC50: 32.8 µg/mL (≈ 121 µM)
[7]
  IC50: 58.5 µg/mL (≈ 216 µM)

## C=C[C@@]1(C)COC(=O)C1(O)C(=O)/C=C(\O)c1ccccc1 (some centres undefined)
[1]
  IC50: > 100 µg/mL
[2]
  IC50: > 100 µg/mL
[3]
  IC50: 53.1 µg/mL
[4]
  IC50: 62.1 µg/mL (≈ 215 µM)
[5]
  IC50: > 100 µg/mL
[6]
  IC50: 33.7 µg/mL (≈ 117 µM)
[7]
  IC50: 79 µg/mL (≈ 274 µM)

## C=C[C@@]1(C)COC(=O)C1C(=O)/C=C(\O)c1ccccc1 (some centres undefined) [HYPERLACTONE D]
[1]
  IC50: 61 µg/mL (≈ 224 µM)
[2]
  IC50: 22.3 µg/mL (≈ 81.9 µM)
[3]
  IC50: 24.6 µg/mL
[4]
  IC50: 52.9 µg/mL (≈ 194 µM)
[5]
  IC50: 47.8 µg/mL (≈ 176 µM)
[6]
  IC50: 20 µg/mL (≈ 73.4 µM)
[7]
  IC50: 37.5 µg/mL (≈ 138 µM)

## C=C[C@@]1(C)COC(=O)[C@]12O[C@]1(c3ccccc3)[C@H](C2=O)[C@H]2[C@H]([C@H](C)CCC=C(C)C)CC=C(C)[C@H]21 [BIYOUYANAGIN A]
[1]
  IC50: 38.8 µg/mL (≈ 81.7 µM)
[2]
  IC50: 36.2 µg/mL (≈ 76.3 µM)
[3]
  IC50: 16.8 µg/mL
[4]
  IC50: 27.1 µg/mL (≈ 57.1 µM)
[5]
  IC50: 31.1 µg/mL (≈ 65.5 µM)
[6]
  IC50: 16.6 µg/mL (≈ 35 µM)
[7]
  IC50: 26.9 µg/mL (≈ 56.7 µM)

## COc1cc(/C=C/C(=O)OC[C@H](Cc2ccc(O)c(OC)c2)[C@H](CO)Cc2ccc(O)c(OC)c2)ccc1O [HANULTARIN]
[1]
  IC50: 33.7 µg/mL (≈ 62.6 µM)
[2]
  IC50: 20.7 µg/mL (≈ 38.4 µM)
[3]
  IC50: 20.9 µg/mL
[4]
  IC50: 18.9 µg/mL (≈ 35.1 µM)
[5]
  IC50: 35.2 µg/mL (≈ 65.4 µM)
[6]
  IC50: 33.1 µg/mL (≈ 61.5 µM)
[7]
  IC50: 16.8 µg/mL (≈ 31.2 µM)

## COc1cccc2c1C(=O)c1c(O)c3c(c(O)c1C2=O)C[C@@](O)(C(C)=O)C[C@@H]3O[C@H]1C[C@H](N)[C@H](O)[C@H](C)O1 [DAUNORUBICIN]
[1]
  IC50: 0.22 µg/mL (≈ 0.417 µM)
[2]
  IC50: > 100 µg/mL
[4]
  IC50: 0.33 µg/mL (≈ 0.626 µM)
[5]
  IC50: 0.45 µg/mL (≈ 0.853 µM)
[6]
  IC50: 15.2 µg/mL (≈ 28.8 µM)
[7]
  IC50: 0.5 µg/mL (≈ 0.948 µM)

## OC[C@H]1[C@@H](Cc2ccc3c(c2)OCO3)CO[C@@H]1c1ccc2c(c1)OCO2 [DIHYDROSESAMIN]
[1]
  IC50: > 100 µg/mL
[2]
  IC50: > 100 µg/mL
[3]
  IC50: 53.1 µg/mL
[4]
  IC50: 62.1 µg/mL (≈ 174 µM)
[5]
  IC50: > 100 µg/mL
[6]
  IC50: 33.7 µg/mL (≈ 94.6 µM)
[7]
  IC50: 79 µg/mL (≈ 222 µM)

## COC(=O)[C@@]1(O)C(=O)[C@](C)(CC=C(C)C)C(=O)C12C[C@H]1[C@@H](CC[C@@]1(C)O)[C@@](C)(O)C2 (some centres undefined) [BIYOUYANAGIOL]
[1]
  IC50: > 100 µg/mL
[2]
  IC50: > 100 µg/mL
[3]
  IC50: 47.8 µg/mL
[4]
  IC50: > 100 µg/mL
[5]
  IC50: > 100 µg/mL
[6]
  IC50: > 100 µg/mL
[7]
  IC50: > 100 µg/mL

## COc1cc(/C=C/C(=O)OC[C@H](Cc2ccc(O)c(OC)c2)[C@H](COC(=O)/C=C/c2ccc(O)c(OC)c2)Cc2ccc(O)c(OC)c2)ccc1O
[1]
  IC50: 14.1 µg/mL (≈ 19.7 µM)
[2]
  IC50: 9.4 µg/mL (≈ 13.2 µM)
[3]
  IC50: 4.5 µg/mL
[4]
  IC50: 5.9 µg/mL (≈ 8.25 µM)
[5]
  IC50: 17.3 µg/mL (≈ 24.2 µM)
[6]
  IC50: 19.9 µg/mL (≈ 27.8 µM)
[7]
  IC50: 5.2 µg/mL (≈ 7.28 µM)
